According to patent publication US20260250318A1, “COMPOSITIONS AND METHODS FOR CROSSING THE BLOOD BRAIN BARRIER” (VOYAGER THERAPEUTICS, INC., priority 2022, published 2026):

How the values were obtained:
[1] = system: brains, heart, liver, muscle, and DRG of the NHPs; assay: Maturation of TTM-001 and TTM-002 capsids, NGS enrichment in NHP tissues; assay type: in vivo; conditions: relative to AAV9 control
Summary of the method: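 Variants carry mutations within and flanking the loop IV peptide insert: positions 450–466 were triplet-randomized, while positions 449–466 received low-frequency point mutations. The combined pool went into two NHPs, and each peptide was scored by NGS enrichment ratio against AAV9.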

brain = assay: Matured TTM-001 and TTM-002 variants, NGS enrichment in mouse brain; assay type: in vivo, mice; conditions: relative to AAV9 control
[2] = NGS fold-enrichment, DRG of NHPs
[3] = NGS fold-enrichment, RNA, brain of NHPs
[4] = NGS fold-enrichment, heart of NHPs
[5] = NGS fold-enrichment, liver DNA of NHPs
[6] = NGS fold-enrichment, liver RNA of NHPs
[7] = NGS fold-enrichment, muscle of NHPs
[8] = NGS fold-enrichment, brain of mice
[9] = NGS fold-enrichment of matured AAV capsid variants, NHP brain, RNA
[10] = NGS fold-enrichment of RNA, NHP brain
[11] = NGS fold-enrichment, NHP liver DNA
[12] = NGS fold-enrichment, NHP liver RNA
[13] = NGS fold-enrichment, NHP muscle
[14] = NGS fold-enrichment, mouse brain

Row | Sequence | Fold Enrichment relative to AAV9, DRG (NHP) [1, 2] | Fold Enrichment relative to AAV9, Brain (NHP) [1, 3] | Fold Enrichment relative to AAV9, Heart (NHP) [1, 4] | Fold Enrichment relative to AAV9, Liver DNA (NHP) [1, 5] | Fold Enrichment relative to AAV9, Liver RNA (NHP) [1, 6] | Fold Enrichment relative to AAV9, Muscle (NHP) [1, 7] | Fold Enrichment relative to AAV9, Brain (Mouse) (brain; [8]) | Fold Enrichment relative to AAV9, Brain (NHP) [1, 10] | Fold Enrichment relative to AAV9, DRG (NHP) ([1]; NGS fold-enrichment, NHP DRG) | Fold Enrichment relative to AAV9, Heart (NHP) ([1]; NGS fold-enrichment, NHP heart) | Fold Enrichment relative to AAV9, Liver DNA (NHP) [1, 11] | Fold Enrichment relative to AAV9, Liver RNA (NHP) [1, 12] | Fold Enrichment relative to AAV9, Muscle (NHP) [1, 13] | Fold Enrichment relative to AAV9, Brain (Mouse) (brain; [14]) | further results
1 | KTIIGSGSPHSKAQHQLT | 0.000 fold | 72.291 fold | 0.000 fold | 0.000 fold | 0.000 fold | 0.000 fold | 100.144 fold | – | – | – | – | – | – | – | –
2 | KTSNGSGSPHSKAQNLQI | – | – | – | – | – | – | – | – | – | – | – | – | – | – | Fold Enrichment relative to AAV9, Brain (NHP) [1, 9]: 52.843 fold; Fold Enrichment relative to AAV9, DRG (NHP) ([1]; NHP DRG): 0.000 fold; Fold Enrichment relative to AAV9, Heart (NHP) ([1]; NHP heart): 0.000 fold; Fold Enrichment relative to AAV9, Liver DNA (NHP) ([1]; NHP liver, DNA): 0.214 fold; Fold Enrichment relative to AAV9, Liver RNA (NHP) ([1]; NHP liver, RNA): 0.178 fold; Fold Enrichment relative to AAV9, Muscle (NHP) ([1]; NHP muscle): 1.605 fold; Fold Enrichment relative to AAV9, Brain (Mouse) (brain; mouse brain): 74.823 fold
3 | KTIRDAGSPHSKAQNQQT | 0.000 fold | 60.346 fold | 0.000 fold | 0.251 fold | 0.141 fold | 0.000 fold | 113.179 fold | – | – | – | – | – | – | – | –
4 | NTIYGSGSPHSKAQNQQT (peptide inserted in AAV capsid) | 1.739 fold | 71.267 fold | 0.000 fold | 0.209 fold | 0.000 fold | 273.69 fold | 59.707 fold | – | – | – | – | – | – | – | –
5 | KTESAHDSPHKSGQNQQT | – | – | – | – | – | – | – | 80.810 fold | 0.000 fold | 0.039 fold | 0.000 fold | 0.000 fold | 0.000 fold | 13.338 fold | –
6 | KTINGSGSPHSKAQSQQL | 0.000 fold | 70.539 fold | 0.000 fold | 0.041 fold | 0.000 fold | 0.000 fold | 51.126 fold | – | – | – | – | – | – | – | –
7 | KTVNGSGSPHSKAPNQQT | – | – | – | – | – | – | – | – | – | – | – | – | – | – | Fold Enrichment relative to AAV9, Brain (NHP) [1, 9]: 53.444 fold; Fold Enrichment relative to AAV9, DRG (NHP) ([1]; NHP DRG): 0.833 fold; Fold Enrichment relative to AAV9, Heart (NHP) ([1]; NHP heart): 2.206 fold; Fold Enrichment relative to AAV9, Liver DNA (NHP) ([1]; NHP liver, DNA): 0.178 fold; Fold Enrichment relative to AAV9, Liver RNA (NHP) ([1]; NHP liver, RNA): 0.156 fold; Fold Enrichment relative to AAV9, Muscle (NHP) ([1]; NHP muscle): 0.006 fold; Fold Enrichment relative to AAV9, Brain (Mouse) (brain; mouse brain): 58.080 fold
8 | KTFPGSGSPHSKVQNQQT | 0.000 fold | 199.720 fold | 0.000 fold | 0.967 fold | 0.000 fold | 0.000 fold | 97.703 fold | 199.720 fold | 0.000 fold | 0.000 fold | 0.967 fold | 0.000 fold | 0.000 fold | 97.703 fold | –
9 | TTINGHDSPHKSGQNQQT (peptide inserted in AAV capsid) | – | – | – | – | – | – | – | 108.963 fold | 1.512 fold | 3.445 fold | 1.109 fold | 0.659 fold | 0.869 fold | 14.788 fold | –
10 | KTISGHDSPHKTGHNQQT | – | – | – | – | – | – | – | 92.490 fold | 0.000 fold | 0.233 fold | 0.000 fold | 0.730 fold | 0.057 fold | 8.823 fold | –
11 | KTINGIGSPHSKAQNLGT | 0.000 fold | 70.543 fold | 0.071 fold | 0.135 fold | 0.000 fold | 0.000 fold | 104.769 fold | – | – | – | – | – | – | – | –
12 | KTINGSGSPHSKAQVGHT | – | – | – | – | – | – | – | – | – | – | – | – | – | – | Fold Enrichment relative to AAV9, Brain (NHP) [1, 9]: 52.624 fold; Fold Enrichment relative to AAV9, DRG (NHP) ([1]; NHP DRG): 0.000 fold; Fold Enrichment relative to AAV9, Heart (NHP) ([1]; NHP heart): 0.000 fold; Fold Enrichment relative to AAV9, Liver DNA (NHP) ([1]; NHP liver, DNA): 0.192 fold; Fold Enrichment relative to AAV9, Liver RNA (NHP) ([1]; NHP liver, RNA): 0.535 fold; Fold Enrichment relative to AAV9, Muscle (NHP) ([1]; NHP muscle): 0.006 fold; Fold Enrichment relative to AAV9, Brain (Mouse) (brain; mouse brain): 106.448 fold
13 | KTVNGSGSPHSKAQNQWT | – | – | – | – | – | – | – | – | – | – | – | – | – | – | Fold Enrichment relative to AAV9, Brain (NHP) [1, 9]: 56.823 fold; Fold Enrichment relative to AAV9, DRG (NHP) ([1]; NHP DRG): 0.000 fold; Fold Enrichment relative to AAV9, Heart (NHP) ([1]; NHP heart): 0.000 fold; Fold Enrichment relative to AAV9, Liver DNA (NHP) ([1]; NHP liver, DNA): 0.219 fold; Fold Enrichment relative to AAV9, Liver RNA (NHP) ([1]; NHP liver, RNA): 0.000 fold; Fold Enrichment relative to AAV9, Muscle (NHP) ([1]; NHP muscle): 0.299 fold; Fold Enrichment relative to AAV9, Brain (Mouse) (brain; mouse brain): 69.906 fold
14 | KTINGSGSPHSKAQAITT | – | – | – | – | – | – | – | – | – | – | – | – | – | – | Fold Enrichment relative to AAV9, Brain (NHP) [1, 9]: 56.924 fold; Fold Enrichment relative to AAV9, DRG (NHP) ([1]; NHP DRG): 0.000 fold; Fold Enrichment relative to AAV9, Heart (NHP) ([1]; NHP heart): 0.000 fold; Fold Enrichment relative to AAV9, Liver DNA (NHP) ([1]; NHP liver, DNA): 0.438 fold; Fold Enrichment relative to AAV9, Liver RNA (NHP) ([1]; NHP liver, RNA): 1.239 fold; Fold Enrichment relative to AAV9, Muscle (NHP) ([1]; NHP muscle): 0.000 fold; Fold Enrichment relative to AAV9, Brain (Mouse) (brain; mouse brain): 75.250 fold
15 | KAINGSGSPHSKAQNLAT | 0.000 fold | 101.954 fold | 10.954 fold | 0.239 fold | 0.298 fold | 8.655 fold | 116.685 fold | 101.954 fold | 0.000 fold | 10.954 fold | 0.239 fold | 0.298 fold | 8.655 fold | 116.685 fold | –
16 | KTINGSGSPHSKTKSQQT | 0.000 fold | 70.891 fold | 0.568 fold | 0.496 fold | 0.418 fold | 0.045 fold | 83.923 fold | – | – | – | – | – | – | – | –
17 | KAIIGHESPHKSGQNQQT | – | – | – | – | – | – | – | 88.563 fold | 0.000 fold | 0.150 fold | 0.145 fold | 0.062 fold | 0.000 fold | 8.530 fold | –
18 | KTVRDSGSPHSKAQNQQT | 0.000 fold | 66.056 fold | 0.025 fold | 0.461 fold | 0.129 fold | 0.000 fold | 142.600 fold | – | – | – | – | – | – | – | –
19 | KEVVGSGSPHSKAQNQQT | – | – | – | – | – | – | – | – | – | – | – | – | – | – | Fold Enrichment relative to AAV9, Brain (NHP) [1, 9]: 56.371 fold; Fold Enrichment relative to AAV9, DRG (NHP) ([1]; NHP DRG): 0.000 fold; Fold Enrichment relative to AAV9, Heart (NHP) ([1]; NHP heart): 0.000 fold; Fold Enrichment relative to AAV9, Liver DNA (NHP) ([1]; NHP liver, DNA): 0.323 fold; Fold Enrichment relative to AAV9, Liver RNA (NHP) ([1]; NHP liver, RNA): 0.000 fold; Fold Enrichment relative to AAV9, Muscle (NHP) ([1]; NHP muscle): 0.000 fold; Fold Enrichment relative to AAV9, Brain (Mouse) (brain; mouse brain): 116.964 fold
20 | KTESGHDSPHKSGQNQQT | – | – | – | – | – | – | – | 86.513 fold | 0.000 fold | 7.414 fold | 0.038 fold | 0.000 fold | 0.000 fold | 13.163 fold | –
21 | KTFSGSGSPHSKAQNLQT | 0.000 fold | 70.035 fold | 0.327 fold | 0.228 fold | 0.000 fold | 0.303 fold | 70.917 fold | – | – | – | – | – | – | – | –
